Reference: patent US12342819B2, “Elasnin, a bacteriostatic agent that has potent antibiofilm activities against both mono- and multi-species biofilm” (The Hong Kong University of Science and Technology, priority 2019, dated 2025)
≈ marks a conversion by molar mass, not a printed value. Where “and” joins values, the source holds several entries; their conditions need not be identical. Identical values can stand only once.

Experiments:
MRSA ATCC 43300 [1] = test: MBIC assay (biofilm inhibition, MTT); assay type: cell-based, Methicillin-resistant Staphylococcus aureus; details: minimum concentration inhibiting 90% biofilm formation
Description: (§1) Minimum biofilm inhibitory concentrations (MBICs) and minimum biofilm eradication concentrations (MBECs) were determined as previously described (30, 31).
(§2) An overnight culture of the testing strains was diluted into approximately 10^7 with LB and 0.5% glucose and treated with various concentrations of Elasnin in 96-well cell culture plates. Culture broth was then incubated at 37° C. for 24 hours and rinsed twice by 1×PBS to remove non-adhering and planktonic cells. After the wash, MTT staining assay was conducted to measure viable cells in the biofilm since the MTT can react with activated succinate dehydrogenase in viable cell mitochondria to form blue violet formazan, which can be read at 570 nm after being dissolved in DMSO.

E. coli ATCC 25922 [2] = test: MBIC assay; assay type: cell-based; details: even at 100 μg/ml
Description: as §1, §2

S. aureus ATCC 25923 [3] = test: MBIC assay; assay type: cell-based; details: S. aureus ATCC 25923, 90% reduction of biofilm formation
Description: as §1, §2

P. aeruginosa PAO1 [4] = test: MBIC assay; assay type: cell-based; details: even at 100 μg/ml
Description: as §1, §2

Bacillus subtilis 168 [5] = test: MBIC assay; assay type: cell-based
Description: as §1, §2

S. aureus B04 [6] = test: MBIC assay; assay type: cell-based; details: S. aureus B04, 90% reduction of biofilm formation
Description: as §1, §2

MRSA biofilms = test: CLSM observation with biofilm cell and matrix staining; assay type: cell-based, Methicillin-resistant Staphylococcus aureus; details: elasnin 4 μg/mL
Description: Biofilms were grown on glass cover slides as described for the MBIC and MBEC assays. Treated biofilms were then rinsed twice with 1×PBS and stained with FilmTracer™ FM® 1-43 green biofilm cell stain and FilmTracer™ SYPRO® Ruby Biofilm Matrix Stain at room temperature for 30 min in the dark. Leica Sp8 Confocal Microscope was employed to observe cells and matrix in the biofilm at 488 nm.

MRSA ATCC 43300 [7] = test: Concentration response curve study (CFU counting of planktonic cells); assay type: cell-based, Methicillin-resistant Staphylococcus aureus; details: 24 hours; vancomycin 0 to 50 μg/ml, elasnin 0 to 100 μg/ml
Description: MRSA ATCC 43300 was used for concentration response curve study. 4×10^5 CFU/ml of exponentially growing MRSA was inoculated into MHB with various concentrations of elasnin and vancomycin in 15 ml falcon tubes. The tubes were incubated at 37° C. on a rotary shaker for 24 hours; 1 ml of culture broth in each tube was diluted with MHB and 1 ml diluted bacteria was plated on MHA plates for the CFU counting. Each concentration was plated on two plates and the experiments were repeated 3-times.

MRSA ATCC 43300 [8] = test: Minimum bactericidal concentration (MBC); assay type: cell-based, Methicillin-resistant Staphylococcus aureus
Description: (§3) Minimum inhibitory concentrations (MICs) and minimum bactericidal concentrations (MBCs) were determined with MRSA ATCC 43300 and E. coli ATCC 25922, according to the Clinical and Laboratory Standards Institute guideline CLSI M100 (2018). Approximately 10^5 CFU/ml overnight culture of the bacteria strains were inoculated into MHB and treated with series concentrations of Elasnin (or crude extracts and antibiotics). […] MBCs were measured following the MIC assay by plating 1 ml suitable diluted culture broth from each well on Mueller Hinton Agar (MHA) plate. The MBCs were defined as lowest concentration at which antimicrobial agent caused >99.9% reduction of cells. Each assay was done in duplicates and repeated 3 times.

E. coli ATCC 25922 [9] = test: MBEC assay; assay type: cell-based; details: viability of biofilm cells constant as concentration increased
Description: as §1
(§4) The ability of Elasnin to eradicate pre-formed mature biofilm was tested through a MBEC assay. Similar to MBIC assay, an overnight culture of testing strains was incubated for 24 hours in 96-well cell culture plates but without adding Elasnin to form biofilm. Formed biofilm was then rinsed twice by 1×PBS and challenged with a series concentration of Elasnin (diluted with LB and 0.5% glucose) and incubated for another 24 hours at 37° C. After incubation, each well was rinsed twice by 1×PBS and MTT assay was conducted to measure viable cells in remaining biofilm.

S. aureus ATCC 25923 [10] = test: MBEC assay; assay type: cell-based; details: S. aureus ATCC 25923, 50% eradication of mature biofilm
Description: as §1, §4

P. aeruginosa PAO1 [11] = test: MBEC assay; assay type: cell-based; details: viability of biofilm cells constant as concentration increased
Description: as §1, §4

Bacillus subtilis 168 [12] = test: MBEC assay; assay type: cell-based; details: 50% eradication of mature biofilm
Description: as §1, §4

S. aureus B04 [13] = test: MBEC assay; assay type: cell-based; details: S. aureus B04, 50% eradication of mature biofilm
Description: as §1, §4

trypsin = details: cited from earlier work
chymotrypsin = details: cited from earlier work
[14] = target: T1, human granulocyte elastase (Homo sapiens, UniProt P08246); details: cited from earlier work
T1 sequence (P08246 30-267): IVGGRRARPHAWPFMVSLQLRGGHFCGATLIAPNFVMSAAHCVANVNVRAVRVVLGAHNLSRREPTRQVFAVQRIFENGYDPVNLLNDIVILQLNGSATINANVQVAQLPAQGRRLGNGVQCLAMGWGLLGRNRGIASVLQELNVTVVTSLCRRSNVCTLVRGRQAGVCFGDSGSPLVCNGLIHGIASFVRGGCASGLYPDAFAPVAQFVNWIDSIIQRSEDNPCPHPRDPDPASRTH

MRSA ATCC 43300 [15] = test: MBEC assay (eradication of pre-formed biofilm, MTT); assay type: cell-based, Methicillin-resistant Staphylococcus aureus; details: concentration eradicating 50% of mature biofilm within 24 hours
Description: as §1, §4

pancreatic elastase = details: cited from earlier work
MRSA ATCC 43300 [16] = test: Minimum inhibitory concentration (MIC), CLSI M100; assay type: cell-based, Methicillin-resistant Staphylococcus aureus; details: Staphylococcus aureus, 24 h
Description: as §3

[17] = biofilm eradication assay, pre-formed biofilm, 18 hr
[18] = biofilm inhibition assay, 24 hr, vs untreated

## CCCCCC(=O)C(CCCC)c1oc(=O)c(CCCC)c(O)c1CCCC (stereo not drawn) [elasnin]
MRSA ATCC 43300 [1]
  MBIC: 1.25 to 2.5 µg/mL
E. coli ATCC 25922 [2]
  development of biofilm formation: not influenced
S. aureus ATCC 25923 [3]
  MBIC: 1.25 to 2.5 µg/mL
P. aeruginosa PAO1 [4]
  development of biofilm formation: not influenced
Bacillus subtilis 168 [5]; Bacillus subtilis 168, 90% reduction of biofilm formation
  MBIC: 2.5 to 5 µg/mL
Bacillus subtilis 168 [5]; Bacillus subtilis 168, elasnin 1.25 μg/ml
  biofilms inhibited: at least 80%
S. aureus B04 [6]
  MBIC: 1.25 to 2.5 µg/mL
MRSA biofilms; [17]
  reduction in cells: over 50%
  reduction in matrices: > 70%
MRSA biofilms; [18]
  decrease in density of cells: around 80%
  decrease in density of matrices: ~35%
MRSA ATCC 43300 [7]
  cell density versus concentration (concentration-response curve): cell densities did not significantly differ
MRSA ATCC 43300 [8]; >99.9% reduction of cells
  MBC: above 100 μg/ml
E. coli ATCC 25922 [9]
  activity in MBEC assay: No activity
S. aureus ATCC 25923 [10]
  MBEC: 0.625 to 1.25 µg/mL
P. aeruginosa PAO1 [11]
  activity in MBEC assay: No activity
Bacillus subtilis 168 [12]
  MBEC: 1.25 to 2.5 µg/mL
S. aureus B04 [13]
  MBEC: 2.5 to 5 µg/mL
trypsin
  activity against trypsin: almost no activities
chymotrypsin
  activity against chymotrypsin: almost no activities
[14]
  inhibition of human granulocyte elastase: inhibits
MRSA ATCC 43300 [15]
  MBEC: 1.25 µg/mL and 1.25 to 2.5 µg/mL
Pancreatic elastase
  activity against pancreatic elastase: almost no activities

## CN[C@H](CC(C)C)C(=O)N[C@H]1C(=O)N[C@@H](CC(N)=O)C(=O)N[C@H]2C(=O)N[C@H]3C(=O)N[C@H](C(=O)N[C@H](C(=O)O)c4cc(O)cc(O)c4-c4cc3ccc4O)[C@H](O)c3ccc(c(Cl)c3)Oc3cc2cc(c3O[C@@H]2O[C@H](CO)[C@@H](O)[C@H](O)[C@H]2O[C@H]2C[C@](C)(N)[C@H](O)[C@H](C)O2)Oc2ccc(cc2Cl)[C@H]1O [vancomycin, reference compound]
MRSA ATCC 43300 [7]
  cell density versus concentration (concentration-response curve): sharp decrease in cell density as the concentration increased
MRSA ATCC 43300 [8]; Staphylococcus aureus
  MBC: 20 to 50 µg/mL (≈ 13.8 to 34.5 µM)
MRSA ATCC 43300 [16]
  MIC: 0.5 to 2 µg/mL (≈ 0.345 to 1.38 µM)
MRSA ATCC 43300 [15]
  MBEC: More than 10 μg/ml
